Measurements published in patent publication US5216005A, “Immunosuppressive analogues and derivatives of succinylacetone” (priority 1990, dated 1993).

Assays:
human lymphocytes = test: tritiated thymidine uptake in primary mixed lymphocyte reaction; assay type: cell-based; details: for CPM ± SD: 1° MLR
Description: The in vitro mixed lymphocyte assay described below is presently employed in the clinical setting as an indicator of histocompatibility, and is premised on the transformation of resting genetically dissimilar lymphocytes into cells which synthesize DNA and undergo proliferation.
(§1) The mixed lymphocyte reaction assay can be carried out by techniques well known to those skilled in the art. L. Hudson and F. C. Huy, Practical Immunology, p. 260, Blackwell Scientific Publications (1976). Briefly this consists of isolating lymphocytes from human peripheral blood by standard density gradient centrifugation techniques from two separate individuals. Approximately 2×10^5 lymphocytes of each individual are combined to yield a total of 4×10^5 lymphocytes per culture. All procedures are carried out under sterile conditions, and the lymphocytes are isolated and kept in physiologically compatible solutions. To the mixture of lymphocytes is added a desired amount of an appropriate succinylacetone derivative, and after different times an aliquot of the mixture is removed and assayed for IL-2 or IFN-γ, or ^3 H-T is measured.
As mentioned above, one measure of an immune response as reflected in a mixed lymphocyte assay is the stimulation of DNA synthesis, and a concomitant increase in cell number. Thus, to further ascertain the immunosuppressive activity of succinylacetonyl-proline-NH-PEG, its effect on inhibition of thymocyte growth, as detected by uptake of tritiated thymidine, was assayed.

[1] = test system: IFN-γ (human lymphoid cells); test: IFN-γ production in primary mixed lymphocyte reaction (WISH cells/EMC virus assay); assay type: cell-based; parameters: IFN-γ: unit not given here; details: for IFN-γ: 1° MLR
Description: Derivatives of succinylacetone were tested for immunosuppressive activity in several different types of assay systems. The first consisted of measuring the amounts of interleukin-2 (IL-2), and interferon-γ (IFN-γ) produced by human lymphoid cells in a mixed lymphocyte reaction. Low levels of these molecules in the reaction mixture indicate that the immune system is being suppressed by the subject succinylacetone derivatives.
IFN-γ was determined by measuring the amount of protection conveyed on human WISH cells against the cytopathic effects of encephalomyocarditis virus (EMC). This assay is described by I. A. Braude, J. of Immunol. Methods 63:237 (1983). Both publications are hereby incorporated by reference.
as §1

[2] = viability of peripheral blood lymphocytes with or without PHA, trypan blue exclusion; assay type: cell-based, human; details: human, peripheral blood lymphocytes; for viability at 2200 µM: 2.2 mM; for viability at 6700 µM: 6.7 mM; for viability at 20000 µM: 20 mM
Description: (§2) Viability was determined using the trypan blue exclusion method well known in the art. […] The assays were conducted in duplicate wherein peripheral blood lymphocytes were isolated from two separate individuals, and then treated with or without phytohemagglutinin in the presence of various concentrations of the appropriate succinylacetone derivative.

[3] = test system: peripheral blood lymphocytes; test: as above; assay type: cell-based, human
Description: as §2

COC(=O)CCC(=O)CC(C)=O [Succinylacetone Methyl Ester, methyl 4-6-dioxoheptanoate]
CPM ± SD (human lymphocytes; Exp I, 3 μM): 81740 CPM | CPM ± SD (human lymphocytes; Exp I, 9 μM): 87101 CPM | CPM ± SD (human lymphocytes; Exp I, 27 μM): 75211 CPM | CPM ± SD (human lymphocytes; Exp I, 81 μM): 80182 CPM | CPM ± SD (human lymphocytes; Exp I, 244 μM): 66159 CPM | CPM ± SD (human lymphocytes; Exp I, 733 μM): 30535 CPM | CPM ± SD (human lymphocytes; Exp I, 2.2 mM): 3185 CPM | CPM ± SD (human lymphocytes; Exp I, 6.7 mM): 89 CPM | CPM ± SD (human lymphocytes; Exp I, 20 mM): 164 CPM | CPM ± SD (human lymphocytes; Exp II, 3 μM): 114428 CPM | CPM ± SD (human lymphocytes; Exp II, 9 μM): 110425 CPM | CPM ± SD (human lymphocytes; Exp II, 27 μM): 97879 CPM | CPM ± SD (human lymphocytes; Exp II, 81 μM): 87595 CPM | CPM ± SD (human lymphocytes; Exp II, 244 μM): 78306 CPM | CPM ± SD (human lymphocytes; Exp II, 733 μM): 40700 CPM | CPM ± SD (human lymphocytes; Exp II, 2.2 mM): 33497 CPM | CPM ± SD (human lymphocytes; Exp II, 6.7 mM): 126 CPM | CPM ± SD (human lymphocytes; Exp II, 20 mM): 90 CPM | IC50 (human lymphocytes; Homo sapiens, Lymphocyte, read-out: concentration for 50% reduction in thymidine uptake): ~733 µM | IFN-γ ([1]; Exp I, 3 μM): 2558 | IFN-γ ([1]; Exp I, 9 μM): 1860 | IFN-γ ([1]; Exp I, 27 μM): 2713 | IFN-γ ([1]; Exp I, 81 μM): 1628 | IFN-γ ([1]; Exp I, 244 μM): 1575 | IFN-γ ([1]; Exp I, 733 μM): 1890 | IFN-γ ([1]; Exp I, 2.2 mM): 788 | IFN-γ ([1]; Exp I, 6.7 mM): < 630 | IFN-γ ([1]; Exp I, 20 mM): < 630 | IFN-γ ([1]; Exp II, 3 μM): 1313 | IFN-γ ([1]; Exp II, 9 μM): 1000 | IFN-γ ([1]; Exp II, 27 μM): 1032 | IFN-γ ([1]; Exp II, 81 μM): 1094 | IFN-γ ([1]; Exp II, 244 μM): 938 | IFN-γ ([1]; Exp II, 733 μM): 688 | IFN-γ ([1]; Exp II, 2.2 mM): < 375 | IFN-γ ([1]; Exp II, 6.7 mM): < 375 | IFN-γ ([1]; Exp II, 20 mM): < 375 | IC50 ([1]; Homo sapiens, Lymphocyte, primary MLR, read-out: concentration that inhibits IFN-γ production by about 50%): ~733 µM | viability ([2]; between 2.2 mM and 733 μM): ~100% | viability at 3 µM ([2]; first individual, (+) PHA): 100% | viability at 9 µM ([2]; first individual, (+) PHA): 100% | viability at 27 µM ([2]; first individual, (+) PHA): 97% | viability at 81 µM ([2]; first individual, (+) PHA): 96% | viability at 244 µM ([2]; first individual, (+) PHA): 97% | viability at 733 µM ([2]; first individual, (+) PHA): 90% | viability at 2200 µM ([2]; first individual, (+) PHA): 89% | viability at 6700 µM ([2]; first individual, (+) PHA): 8% | viability at 20000 µM ([2]; first individual, (+) PHA): 0% | viability at 3 µM ([2]; first individual, (-) PHA): 100% | viability at 9 µM ([2]; first individual, (-) PHA): 100% | viability at 27 µM ([2]; first individual, (-) PHA): 100% | viability at 81 µM ([2]; first individual, (-) PHA): 100% | viability at 244 µM ([2]; first individual, (-) PHA): 100% | viability at 733 µM ([2]; first individual, (-) PHA): 96% | viability at 2200 µM ([2]; first individual, (-) PHA): 94% | viability at 6700 µM ([2]; first individual, (-) PHA): 7% | viability at 20000 µM ([2]; first individual, (-) PHA): 0% | viability at 3 µM ([2]; second individual, (+) PHA): 100% | viability at 9 µM ([2]; second individual, (+) PHA): 100% | viability at 27 µM ([2]; second individual, (+) PHA): 94% | viability at 81 µM ([2]; second individual, (+) PHA): 98% | viability at 244 µM ([2]; second individual, (+) PHA): 96% | viability at 733 µM ([2]; second individual, (+) PHA): 94% | viability at 2200 µM ([2]; second individual, (+) PHA): 93% | viability at 6700 µM ([2]; second individual, (+) PHA): 6% | viability at 20000 µM ([2]; second individual, (+) PHA): 0% | viability at 3 µM ([2]; second individual, (-) PHA): 100% | viability at 9 µM ([2]; second individual, (-) PHA): 100% | viability at 27 µM ([2]; second individual, (-) PHA): 100% | viability at 81 µM ([2]; second individual, (-) PHA): 100% | viability at 244 µM ([2]; second individual, (-) PHA): 98% | viability at 733 µM ([2]; second individual, (-) PHA): 95% | viability at 2200 µM ([2]; second individual, (-) PHA): 94% | viability at 6700 µM ([2]; second individual, (-) PHA): 4% | viability at 20000 µM ([2]; second individual, (-) PHA): 0% | viability ([3]; about 6.7 mM): little viability | Cells/ml ([3]; first individual, (+) PHA, 3 μM): 0.48 X 10^6 Cells/ml | Cells/ml ([3]; first individual, (+) PHA, 9 μM): 0.32 X 10^6 Cells/ml | Cells/ml ([3]; first individual, (+) PHA, 27 μM): 0.37 X 10^6 Cells/ml | Cells/ml ([3]; first individual, (+) PHA, 81 μM): 0.4 X 10^6 Cells/ml | Cells/ml ([3]; first individual, (+) PHA, 244 μM): 0.38 X 10^6 Cells/ml | Cells/ml ([3]; first individual, (+) PHA, 733 μM): 0.4 X 10^6 Cells/ml | Cells/ml ([3]; first individual, (+) PHA, 2.2 mM): 0.3 X 10^6 Cells/ml | Cells/ml ([3]; first individual, (+) PHA, 6.7 mM): 0.13 X 10^6 Cells/ml | Cells/ml ([3]; first individual, (-) PHA, 3 μM): 0.60 X 10^6 Cells/ml | Cells/ml ([3]; first individual, (-) PHA, 9 μM): 0.36 X 10^6 Cells/ml | Cells/ml ([3]; first individual, (-) PHA, 27 μM): 0.60 X 10^6 Cells/ml | Cells/ml ([3]; first individual, (-) PHA, 81 μM): 0.37 X 10^6 Cells/ml | Cells/ml ([3]; first individual, (-) PHA, 244 μM): 0.35 X 10^6 Cells/ml | Cells/ml ([3]; first individual, (-) PHA, 733 μM): 0.34 X 10^6 Cells/ml | Cells/ml ([3]; first individual, (-) PHA, 2.2 mM): 0.36 X 10^6 Cells/ml | Cells/ml ([3]; first individual, (-) PHA, 6.7 mM): 0.15 X 10^6 Cells/ml | Cells/ml ([3]; second individual, (+) PHA, 3 μM): 0.50 X 10^6 Cells/ml | Cells/ml ([3]; second individual, (+) PHA, 9 μM): 0.50 X 10^6 Cells/ml | Cells/ml ([3]; second individual, (+) PHA, 27 μM): 0.40 X 10^6 Cells/ml | Cells/ml ([3]; second individual, (+) PHA, 81 μM): 0.55 X 10^6 Cells/ml | Cells/ml ([3]; second individual, (+) PHA, 244 μM): 0.52 X 10^6 Cells/ml | Cells/ml ([3]; second individual, (+) PHA, 733 μM): 0.39 X 10^6 Cells/ml | Cells/ml ([3]; second individual, (+) PHA, 2.2 mM): 0.42 X 10^6 Cells/ml | Cells/ml ([3]; second individual, (+) PHA, 6.7 mM): 0.24 X 10^6 Cells/ml | Cells/ml ([3]; second individual, (-) PHA, 3 μM): 0.5 X 10^6 Cells/ml | Cells/ml ([3]; second individual, (-) PHA, 9 μM): 0.51 X 10^6 Cells/ml | Cells/ml ([3]; second individual, (-) PHA, 27 μM): 0.43 X 10^6 Cells/ml | Cells/ml ([3]; second individual, (-) PHA, 81 μM): 0.53 X 10^6 Cells/ml | Cells/ml ([3]; second individual, (-) PHA, 244 μM): 0.46 X 10^6 Cells/ml | Cells/ml ([3]; second individual, (-) PHA, 733 μM): 0.48 X 10^6 Cells/ml | Cells/ml ([3]; second individual, (-) PHA, 2.2 mM): 0.42 X 10^6 Cells/ml | Cells/ml ([3]; second individual, (-) PHA, 6.7 mM): 0.23 X 10^6 Cells/ml
